Laboratory results as given in patent US4542025A, “Injectable, long-acting microparticle formulation for the delivery of anti-inflammatory agents” (priority 1984, dated 1985).

Test: In vitro release of methylprednisolone acetate into 50 wt % aqueous ethanol
Type: physicochemical
Conditions: unencapsulated, 37° C., 120 cycles/min
Experimental: The in vitro release of methylprednisolone acetate from microparticles into a receiving fluid comprising 50 wt % of aqueous ethanol maintained at 37° C. was measured.
Triplicate samples of 20 mg of microparticles were weighed and each sample was placed in an 8-oz bottle containing 150 mL of 50 wt % aqueous ethanol. […] Next, the bottles were sealed with a thin sheet of Teflon and a screw cap to prevent evaporation. The bottles were then placed in an Eberbach shaker bath oscillating at 120 cycles/min and maintained at 37° C. The amount of drug released from the microparticles as a function of time was measured by determining the absorbance of the aqueous ethanol receiving fluid at 247 nm and by using the following equation based on Beer's Law.
wherein C is the concentration of methylprednisolone acetate in g/ml.

## CC(=O)OCC(=O)[C@@]1(O)CC[C@H]2[C@@H]3C[C@H](C)C4=CC(=O)C=C[C@]4(C)[C@H]3[C@@H](O)C[C@@]21C
  time to complete dissolution: 30 min
